Several values for one entry are separate records, joined by “and”; a condition that tells them apart may be missing. Equal values may be shown once.
How the values were obtained:
[1] = human skin permeation of cannabidiol with permeation enhancers; type: in vitro ADME; details: enhancer 6% v/v
From the text: The aim of the experiment was to evaluate the effect of permeation enhancers on human skin permeation of cannabidiol (CBD). The following permeation enhancers were used in the study: • LAUROGLYCOL 90-(Propylene glycol monolaurate 90%)-LG-90 • TRANSCUTOL HP (Purified diethylene glycol monoethyl ether)-TC-HP • LABRAFIL® M 1944 CS (Oleoyl Macrogolglycerides)-LF • LABRASOL® (Caprylocaproyl Macrogolglycerides)-LB • SUPER REFINED® NOVOL NF (Oleyl Alcohol)-OA
A high-pressure liquid chromatography (HPLC) assay was used for the analysis of CBD in the samples. The HPLC system consisted of a Waters 717 plus Autosampler, Waters 1525 Binary HPLC Pump and Waters 2487 Dual λ Absorbance Detector with Waters Breeze software. A Brownlee C-18 reversed-phase Spheri-5 μm column (220×4.6 mm) with a C-18 reversed phase 7 μm guard column (15×3.2 mm) was used with the UV detector set at a wavelength of 215 nm. The mobile phase was comprised of acetonitrile: 25 mM phosphate buffer with 0.1% triethylamine pH 3.0 (80:20). The flow rate of the mobile phase was […] and 100 μL of the sample was injected onto the column.
Human skin harvested during abdominoplasty was used for the diffusion studies. Skin sections were obtained by using a Padgett Instruments® dermatome set to 250 microns and stored at −20° C. […] Trans-epidermal water loss was measured (Evaporimeter EP1™, ServoMed, Sweden) after securing the skin in the cells. Pieces of skin with readings below 10 g/m^2/h were used for the diffusion studies. […] An excess quantity of CBD was added to the donor vehicle (propylene glycol:Hanks' buffer (80:20)) solution with and without permeation enhancers at 6% v/v, sonicated for 10 min, and then applied onto the skin. Excess quantity of the drug was used in the donor compartment throughout the diffusion experiment in order to maintain maximum and constant chemical potential of the drug in the donor vehicle. […]
Drug disposition in the skin samples was measured at the completion of the 48 h experiment. […] Samples were analyzed by HPLC to determine CBD content in […] (pmol) of drug per gram of wet tissue weight. […]

[2] = plasma THC and CBD concentrations after separate and co-administration
[3] = skin permeation study of WIN 55,212-2 in flow-through diffusion cells; type: in vitro ADME, human
Protocol: The skin permeation study was carried out using skin excised during abdominal reduction surgery. The skin sample was harvested from the abdomen using a Padgett dermatome set to 250 μm; the skin sample was frozen at −20° C. for one week. The frozen skin sample was thawed and used at the 250 μm split-thickness for the diffusion study. Three PermeGear In-Line Flow Cells were used for the skin permeation study. The receiver fluid was 6% BRIJ® 98 (Polyoxyethylene 20 Oleyl Ether), in order to increase the partitioning of this extremely lipophilic drug into the receiver. The receiver fluid was pumped through the diffusion cells at a rate of one milliliter per hour. The receiver samples were refrigerated until HPLC analysis. The temperature of the diffusion cells was maintained at 32° C. with a circulating water bath. The diffusion experiment was initiated by charging the donor compartment with 0.25 mL of WIN 55,212-2 Mesylate in propylene glycol (50 mg/mL).
Samples were analyzed using a HPLC system which consisted of a Waters 717 Autosampler, 501 Pumps, and a 484 Tunable UV Absorbance Detector with Millennium Chromatography Software. A reversed phase Beckman 5 μm particle 4.6 mm×25 cm C-18 column was used with the UV detector set at a wavelength of 215 nm. The mobile phase consisted of 0.05 M monobasic potassium phosphate:acetonitrile (300 mL:700 mL) at a flow rate of 2 mL/min.
Skin permeation data were plotted as the cumulative amount of drug collected in the receiver compartment as a function of time. The lag times and steady-state fluxes were calculated using the terminal, linear portions of these curves. The slopes (Js) through these curves were determined using linear regression analysis. In all cases, the coefficients of determination for the lines were >0.99.
Lag times were determined by extrapolating the steady-state curves to the X-axis. The permeability coefficient was calculated from Fick's law of diffusion: […]

[4] = full-thickness human skin, Touitou et al. 1988; cited from earlier work
[5] = in vitro permeation of Δ^9-tetrahydrocannabinol across human skin with various receiver solutions

## C=C(C)C1CCC(C)=CC1c1c(O)cc(CCCCC)cc1O (centres unmarked) [CBD, 2-[3-methyl-6-(1-methylethenyl)-2-cyclohexen-1-yl]-5-pentyl-1,3-benzenediol]
[1]; 48 h
  Cumulative amount permeated at 48 h: 193.21 ± 22.77 nmol and 338.11 ± 73.09 nmol
[1]; donor propylene glycol:Hanks' buffer (80:20)
  Lag Time: 14.19 ± 1.59 h and 9.43 ± 2.47 h
[1]; steady state, donor propylene glycol:Hanks' buffer (80:20) with excess CBD, receiver with 40% PEG 400, 32° C.
  Flux: 9.16 ± 1.41 nmol/cm^2/h
[2]; FIG. 12
  cannabidiol plasma concentration, coadministered with THC vs alone: higher both initially and over time when coadministered

## Cc1c(C(=O)c2cccc3ccccc23)c2cccc3c2n1[C@H](CN1CCOCC1)CO3 [WIN 55,212-2, (R)-(+)-[2,3-dihydro-5-methyl-3-(4-morpholinylmethyl)-pyrrolo[1,2,3-de]-1,4-benzoxazin-6-yl]-1-naphthalenyl-methanone]
[3]; 250 μm split-thickness skin, donor 50 mg/mL in propylene glycol, receiver 6% BRIJ 98, 32° C., 48 h
  diffusion lag time: 24 h
[3]; 48 h, donor not saturated
  drug depletion from the donor compartment: < 1%
[3]; steady state, donor 50 mg/mL in propylene glycol, receiver 6% BRIJ 98, n=3
  mean flux: 2.6 μg/cm^2/h

## CCCCCc1cc(O)c2c(c1)OC(C)(C)[C@@H]1CC=C(C)C[C@@H]21 [Δ^8-THC, Δ^8-tetrahydrocannabinol]
[4]
  flux rate: 3.5 μg/cm^2/hr
  permeability coefficient: 3.6e-08 cm/s

## CCCCCc1cc(O)c2c(c1)OC(C)(C)[C@@H]1CCC(C)=C[C@@H]21 [Δ^9-tetrahydrocannabinol]
[2]; FIG. 11
  THC plasma concentration, coadministered with cannabidiol vs alone: higher both initially and over time when coadministered
[5]; 6% BRIJ 98 receiver solution
  permeability difference of tape stripped skin relative to intact skin: six fold
[5]; four subjects, except subject 3
  permeability enhancement with 6% BSA relative to 4% BSA: 20-50%
[5]; intact skin
  mean lag time: 18.0 ± 3.4 h
[5]; receiver BRIJ 98 (6%) vs BSA (4%), five subjects, except subject 4
  permeability in presence of BRIJ 98 solution relative to BSA solution: 2-5 fold
[5]; stripped skin
  mean lag time: 7.8 ± 3.9 h
[5]; three subjects, differences not statistically significant
  permeability with 6% BRIJ 98 vs 0.5% BRIJ 98 receiver solution: similar
[5]; various receiver solutions
  permeability of tape stripped skin relative to intact skin: 2-3 times

Source: patent publication US8435556B2, “Transdermal delivery of cannabidiol” (Alltranz, LLC, priority 2005, dated 2013)
